Values belong to the compound of their own block, whether it stands above or below them.
Experiments:
Assay type in all cases: in vivo
Oryza sativa (ORYSA) = assay: Post-emergence crop plant compatibility, greenhouse pot test (also comparative test C); conditions: for Post-emergence action against ORYSA (crop plant compatibility): vs untreated controls
How it was run: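 Rice and other crops sprayed post-emergence at one-leaf stage (2–3 weeks after sowing) with WP or EC formulations plus 0.5% additive at 600 l/ha water. Visual rating about 3 weeks later versus untreated controls (100% = dead, 0% = like control); suffixes a–c denote different doses.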

[1] = tested on: Triticum aestivum (TRZAS); assay: Post-emergence crop plant compatibility, greenhouse pot test; conditions: vs untreated controls
How it was run: (§1)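 Crop plants grown in sandy loam in the greenhouse were sprayed post-emergence at the one-leaf stage, 2–3 weeks after sowing, with WP or EC formulations as aqueous suspension/emulsion plus 0.5% additive at 600 l/ha. Damage was rated visually about 3 weeks later versus untreated controls (0% = like control, 100% = plants dead).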

Zea mays (ZEAMX) = assay: as above; conditions: 1.25 g/ha, vs untreated controls
How it was run: as §1

Glycine max (GLXMA) = assay: as above
How it was run: as §1

[2] = tested on: Matricaria inodora (MATIN); assay: Post-emergence herbicidal action, greenhouse pot test (also comparative test C)
How it was run: (§2)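 Green parts of one-leaf-stage plants are sprayed at 600 l/ha with formulated compound plus 0.5% additive, then kept under optimum greenhouse conditions for about 3 weeks. Damage is scored visually, where 100% means dead plants and 0% means no difference from controls.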

[3] = tested on: Alopecurus myosuroides (ALOMY); assay: as above; conditions: rated visually after about 3 weeks vs untreated controls, 100% = plants have died
How it was run: as §2

[4] = tested on: Echinochloa crus-galli (ECHCG); assay: as above
How it was run: as §2

Setaria viridis (SETVI) = assay: as above
How it was run: as §2

[5] = tested on: Amaranthus retroflexus (AMARE); assay: Post-emergence herbicidal action, greenhouse pot test; conditions: rated visually after about 3 weeks vs untreated controls, 100% = plants have died
How it was run: (§3)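 Greenhouse-grown weeds in sandy loam were sprayed post-emergence at the one-leaf stage, 2–3 weeks after sowing. Compounds were formulated as WP or EC in water with 0.5% additive at 600 l/ha, at rates of 20 g/ha or less. Visual rating after about 3 weeks used a scale from 0% (like untreated control) to 100% (plants dead).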

[6] = tested on: Pharbitis purpurea (PHBPU); assay: as above
How it was run: as §3

Avena fatua (AVEFA) = assay: as above; conditions: 20 g/ha, rated visually after about 3 weeks vs untreated controls, 100% = plants have died
How it was run: as §3

[7] = tested on: Polygonum convolvulus (POLCO); assay: as above; conditions: dosage 20 g/ha
How it was run: as §3

[8] = tested on: Abutilon theophrasti (ABUTH); assay: as above; conditions: rated visually after about 3 weeks vs untreated controls, 100% = plants have died
How it was run: as §3

Lolium rigidum (LOLRI) = assay: as above; conditions: dosage 20 g/ha
How it was run: as §3

Veronica persica (VERPE) = assay: as above
How it was run: as §3

Viola tricolor (VIOTR) = assay: as above
How it was run: as §3

Post-emergence action against ORYSA (crop plant compatibility) (Oryza sativa (ORYSA); 1.25 g/ha): 0%
Post-emergence action against ORYSA (crop plant compatibility) (Oryza sativa (ORYSA); 5 g/ha): 20%
Post-emergence action against TRZAS (crop plant compatibility) ([1]; 1.25 g/ha): 20%
Post-emergence action against TRZAS (crop plant compatibility) ([1]; 5 g/ha): 20%
Post-emergence action against TRZAS (crop plant compatibility) ([1]; 20 g/ha): 20%
Post-emergence action against ZEAMX (crop plant compatibility) (Zea mays (ZEAMX)): 10%
Post-emergence action against GLXMA in % (Glycine max (GLXMA); 1.25 g/ha): 20%
Post-emergence action against GLXMA in % (Glycine max (GLXMA); 5 g/ha): 20%
SMILES: Cn1c(C(F)(F)F)cc(=O)n(-c2cc(Oc3ccccc3OCC(=O)OCC#N)c([N+](=O)[O-])cc2F)c1=O [I.6-176, Cyanomethyl (2-{4-fluoro-5-[3-methyl-2,6-dioxo-4-(trifluoromethyl)-3,6-dihydropyrimidin-1(2H)-yl]-2-nitrophenoxy}phenoxy)acetate]
pest or weed control at 5 g/ha ([2]; Tripleurospermum inodorum, 504 h, dosage 5 g/ha, read-out: Post-emergence action against MATIN in %): 80%
pest or weed control at 20 g/ha ([2]; Tripleurospermum inodorum, 504 h, dosage 20 g/ha, read-out: Post-emergence action against MATIN in %): 100%
pest or weed control at 5 g/ha ([3]; Alopecurus myosuroides, 504 h, 5 g/ha, read-out: Post-emergence action at 5 g/ha against ALOMY in %): 80%
pest or weed control at 20 g/ha ([3]; Alopecurus myosuroides, 504 h, 20 g/ha, read-out: Post-emergence action at 20 g/ha against ALOMY in %): 90%
Post-emergence action at 1.25 g/ha against ECHCG in % ([4]; 1.25 g/ha, rated visually after about 3 weeks vs untreated controls, 100% = plants have died): 100%
pest or weed control at 5 g/ha ([4]; Echinochloa crus-galli, 504 h, dosage 5 g/ha, read-out: Post-emergence action against ECHCG in %): 100%
pest or weed control at 20 g/ha ([4]; Echinochloa crus-galli, 504 h, dosage 20 g/ha, read-out: Post-emergence action against ECHCG in %): 100%
pest or weed control at 20 g/ha (Setaria viridis (SETVI); Setaria viridis, 504 h, 20 g/ha, read-out: Post-emergence action against SETVI): 100%
pest or weed control at 1.25 g/ha (Setaria viridis (SETVI); Setaria viridis, 504 h, dosage 1.25 g/ha, read-out: Post-emergence action against SETVI in %): 100%
pest or weed control at 5 g/ha (Setaria viridis (SETVI); Setaria viridis, 504 h, dosage 5 g/ha, read-out: Post-emergence action against SETVI in %): 100%
pest or weed control at 1.25 g/ha ([5]; Amaranthus retroflexus, 504 h, 1.25 g/ha, read-out: Post-emergence action at 1.25 g/ha against AMARE in %): 100%
pest or weed control at 5 g/ha ([5]; Amaranthus retroflexus, 504 h, 5 g/ha, read-out: Post-emergence action at 5 g/ha against AMARE in %): 100%
pest or weed control at 20 g/ha ([5]; Amaranthus retroflexus, 504 h, 20 g/ha, read-out: Post-emergence action at 20 g/ha against AMARE in %): 100%
pest or weed control at 1.25 g/ha ([6]; Ipomoea purpurea, 504 h, dosage 1.25 g/ha, read-out: Post-emergence action against PHBPU in %): 80%
pest or weed control at 5 g/ha ([6]; Ipomoea purpurea, 504 h, dosage 5 g/ha, read-out: Post-emergence action against PHBPU in %): 100%
pest or weed control at 20 g/ha ([6]; Ipomoea purpurea, 504 h, dosage 20 g/ha, read-out: Post-emergence action against PHBPU in %): 100%
pest or weed control at 20 g/ha (Avena fatua (AVEFA); Avena fatua, 504 h, read-out: Post-emergence action at 20 g/ha against AVEFA in %): 80%
pest or weed control at 20 g/ha ([7]; Fallopia convolvulus, 504 h, read-out: Post-emergence action against POLCO in %): 100%
pest or weed control at 1.25 g/ha ([8]; Abutilon theophrasti, 504 h, 1.25 g/ha, read-out: Post-emergence action at 1.25 g/ha against ABUTH in %): 100%
pest or weed control at 5 g/ha ([8]; Abutilon theophrasti, 504 h, 5 g/ha, read-out: Post-emergence action at 5 g/ha against ABUTH in %): 100%
pest or weed control at 20 g/ha ([8]; Abutilon theophrasti, 504 h, 20 g/ha, read-out: Post-emergence action at 20 g/ha against ABUTH in %): 100%
pest or weed control at 20 g/ha (Lolium rigidum (LOLRI); Lolium rigidum, 504 h, read-out: Post-emergence action against LOLRI in %): 90%
pest or weed control at 1.25 g/ha (Veronica persica (VERPE); Veronica persica, 504 h, 1.25 g/ha, read-out: Post-emergence action against VERPE): 80%
pest or weed control at 5 g/ha (Veronica persica (VERPE); Veronica persica, 504 h, 5 g/ha, read-out: Post-emergence action against VERPE): 90%
pest or weed control at 20 g/ha (Veronica persica (VERPE); Veronica persica, 504 h, 20 g/ha, read-out: Post-emergence action against VERPE): 100%
pest or weed control at 1.25 g/ha (Viola tricolor (VIOTR); Viola tricolor, 504 h, 1.25 g/ha, read-out: Post-emergence action against VIOTR): 100%
pest or weed control at 5 g/ha (Viola tricolor (VIOTR); Viola tricolor, 504 h, 5 g/ha, read-out: Post-emergence action against VIOTR): 100%
pest or weed control at 20 g/ha (Viola tricolor (VIOTR); Viola tricolor, 504 h, 20 g/ha, read-out: Post-emergence action against VIOTR): 100%

Post-emergence action against ORYSA (crop plant compatibility) (Oryza sativa (ORYSA); 1.25 g/ha): 0%
Post-emergence action against ORYSA (crop plant compatibility) (Oryza sativa (ORYSA); 5 g/ha): 10%
Post-emergence action against ORYSA in % (Oryza sativa (ORYSA); 20 g/ha, crop plant compatibility): 20%
Post-emergence action against TRZAS (crop plant compatibility) ([1]; 1.25 g/ha): 10%
Post-emergence action against TRZAS (crop plant compatibility) ([1]; 5 g/ha): 10%
Post-emergence action against ZEAMX (crop plant compatibility) (Zea mays (ZEAMX)): 10%
Post-emergence action against GLXMA in % (Glycine max (GLXMA); 1.25 g/ha): 20%
SMILES: Cn1c(C(F)(F)F)cc(=O)n(-c2cc(Oc3ccccc3OCC(=O)OCc3ccccn3)c([N+](=O)[O-])cc2F)c1=O [I.6-276]
Post-emergence action against MATIN in % ([2]; dosage 5 g/ha): 100%
Post-emergence action against MATIN in % ([2]; dosage 20 g/ha): 100%
Post-emergence action at 5 g/ha against ALOMY in % ([3]; 5 g/ha): 80%
Post-emergence action at 20 g/ha against ALOMY in % ([3]; 20 g/ha): 100%
Post-emergence action against ECHCG in % ([4]; dosage 5 g/ha): 90%
Post-emergence action against ECHCG in % ([4]; dosage 20 g/ha): 100%
Post-emergence action against SETVI (Setaria viridis (SETVI); 20 g/ha): 100%
Post-emergence action against SETVI in % (Setaria viridis (SETVI); dosage 1.25 g/ha): 100%
Post-emergence action against SETVI in % (Setaria viridis (SETVI); dosage 5 g/ha): 100%
Post-emergence action at 1.25 g/ha against AMARE in % ([5]; 1.25 g/ha): 100%
Post-emergence action at 5 g/ha against AMARE in % ([5]; 5 g/ha): 100%
Post-emergence action at 20 g/ha against AMARE in % ([5]; 20 g/ha): 100%
Post-emergence action against PHBPU in % ([6]; dosage 1.25 g/ha): 100%
Post-emergence action against PHBPU in % ([6]; dosage 5 g/ha): 100%
Post-emergence action against PHBPU in % ([6]; dosage 20 g/ha): 100%
Post-emergence action at 20 g/ha against AVEFA in % (Avena fatua (AVEFA)): 80%
Post-emergence action against POLCO in % [7]: 100%
Post-emergence action at 1.25 g/ha against ABUTH in % ([8]; 1.25 g/ha): 100%
Post-emergence action at 5 g/ha against ABUTH in % ([8]; 5 g/ha): 100%
Post-emergence action at 20 g/ha against ABUTH in % ([8]; 20 g/ha): 100%
Post-emergence action against LOLRI in % (Lolium rigidum (LOLRI)): 90%
Post-emergence action against VERPE (Veronica persica (VERPE); 5 g/ha): 100%
Post-emergence action against VERPE (Veronica persica (VERPE); 20 g/ha): 100%
Post-emergence action against VIOTR (Viola tricolor (VIOTR); 1.25 g/ha): 100%
Post-emergence action against VIOTR (Viola tricolor (VIOTR); 5 g/ha): 100%
Post-emergence action against VIOTR (Viola tricolor (VIOTR); 20 g/ha): 100%

— patent US20240025862A1, “SUBSTITUTED N-PHENYLURACILS AND SALTS THEREOF, AND USE THEREOF AS HERBICIDAL ACTIVE SUBSTANCES” (Bayer Aktiengesellschaft, priority 2020, published 2024)
